Article PMC9668969 (Nature Communications, 2022)

Tested on: WT ELIC
Assay: Fluorescence stopped-flow liposomal Tl+ flux assay, symmetric liposomes
Type: biochemical, Erwinia chrysanthemi
Method: The fluorescence sequential-mixing stopped-flow liposomal flux measurements were carried using an SX20 stopped-flow spectrofluorometer (Applied Photophysics) and Pro-Data SX software[13],[30]. 7.5 mg of the respective lipid mixture (POPC, 1:1 POPC: POPE, 1:1 POPC:POPG, 3:1 POPC:POPE, 3:1 POPC:POPG, 2:1:1 POPC:POPE:POPG) was dried in a glass vial to a thin film under a constant stream of N2. The lipids were then further dried under vacuum in a desiccator overnight. The following day the lipids were hydrated in 500 µl of reconstitution buffer (100 mM NaNO3, 10 mM HEPES, pH 7) (Buffer R), 250 µl of 75 mM 8-Aminonaphthalene-1,3,6-Trisulfonic Acid (ANTS, ThermoFisher Scientific) in buffer R, and doped with ~18 mg of CHAPS (Anatrace). The mixture was vortexed and then sonicated with heat until completely solubilized. Following the sonication, the solution was brought to RT then 3.5 µl of 6.7 mg/ml ELIC in Buffer A with 0.02% DDM was added (3 µg per mg of lipid). This combined solution was incubated at RT for 30 min, followed by the addition of 1 ml of 1:1 v/v SM-2 BioBeads in Buffer R and an additional 250 µl of 75 mM ANTS in Buffer R. This mixture was incubated at RT for 2.5 hr with gentle mixing. The liposome suspension was then extruded with an Avanti mini-extruder and 0.1 µm membrane (30×). The extruded liposomes were stored at 13 °C overnight with gentle rotation. The next day, the liposomes were diluted to 2.5 mL using assay buffer (140 mM NaNO3, 10 mM HEPES, pH 7) (Stopped-flow Buffer A), loaded into a PD-10 desalting column (Cytiva), eluted with 3 mL of Stopped-flow Buffer A and subsequently diluted 5-fold with Stopped-flow Buffer A.
Using propylamine as the agonist, the assay and analysis was carried out as previously described[13],[30]. ELIC-containing liposomes were first mixed 1:1 with Buffer A containing 2× the concentration of propylamine. After a variable delay of 10 ms to 25 s, the sample was then mixed 1:1 with a quenching buffer (90 mM NaNO3, 50 mM TlNO3, 10 mM HEPES, pH 7), and ANTS fluorescence (ex. 360 nm, fluorescence above 420 nm) was recorded for 1 s. For each delay time, 5 repeat measurements were obtained. The data were collected using Applied Photophysics Pro-Data SX software. The fluorescence quenching traces were fit to a stretched exponential (Eq. 2a) and the rate of Tl^+ influx was determined at 2 ms (Eq. 2b).2a Ft=F∞+F0−F∞⋅e^−t/τ^β 2b kt=β/τ⋅2ms/τ^(β−1) where Ft, F∞, F0 are the fluorescence at time t, final fluorescence and initial fluorescence. τ is the time constant, β the stretched exponential factor, and kt the calculated rate of Tl^+ influx at 2 ms. The time course of desensitization was also fit to a double exponential and a weighted time constant was calculated as was done for the patch-clamp data using Origin 2019b. All replicates were taken from independent samples.

## CCCCCCCC/C=C\CCCCCCCC(=O)OC(COC(=O)CCCCCCCCCCCCCCC)COP(=O)(O)OCC(O)CO (stereo not drawn) [POPG, 1-palmitoyl-2-oleoyl-phosphatidylglycerol]
25% POPG in symmetric liposomes
  time constant of desensitization: ~ 6 s
25–50 mol% in binary mixtures with POPC, 10 mM propylamine
  effect on desensitization: slowed desensitization
50% POPG in symmetric liposomes
  time constant of desensitization: ~ 12 s
